Among the data in patent publication US20180339976A1, “NOVEL TRIAZOLE DERIVATIVES” (priority 2015, published 2018) are LogP values, retold here.

The first data set can be described thus: Log P by HPLC on reversed phase columns (EEC directive 79/831 Annex V.A8). The data set is classed as physicochemical.
Conditions: not given
As to the method:
Measurement of Log P values was performed according to EEC directive 79/831 Annex V.A8 by HPLC (High Performance Liquid Chromatography) on reversed phase columns with the following methods: • ^[a]
If more than one Log P value is available within the same method, all the values are given and separated by “+”.
Lambda-max-values were determined using UV-spectra from 200 nm to 400 nm and the peak values of the chromatographic signals.
For the molecule `OC(Cc1ccnc(Cl)c1)(Cn1cncn1)c1ccc(Oc2ccccc2)cc1` (stereo not shown) [Example I-24], the LogP was 2.57^[a].
Same read-out and setting: to `OC(Cc1cc(F)ncc1Cl)(Cn1cncn1)c1ccc(Oc2ccccc2)cc1` (stereo not shown) [Example I-34] belongs 3.02^[a]; to `OC(Cc1ccnc(Cl)c1F)(Cn1cncn1)c1ccc(Oc2ccccc2)cc1` (stereo not shown) [Example I-46], 2.84^[a]; to `OC(Cc1ccncc1F)(Cn1cncn1)c1ccc(Oc2ccccc2)cc1` (stereo not shown) [Example I-03], 2.13^[a].
Still for that read-out and setting: to `OC(Cc1cc(Cl)ncc1F)(Cn1cncn1)c1ccccc1` (stereo not shown) [Example I-48] belongs 1.86^[a].
Same read-out and setting: next, `OC(Cc1ccncc1F)(Cn1cncn1)c1ccc(Oc2ccc(F)cc2F)cc1` (stereo not shown) [Example I-20]: 2.27^[a]; `OC(Cc1ccncc1F)(Cn1cncn1)c1ccc(F)cc1` (stereo not shown) [Example I-13]: 1.26^[a]; `OC(Cc1cc(Cl)ncc1F)(Cn1cncn1)c1ccc(F)cc1F` (stereo not shown) [Example I-45]: 2.13^[a].
`OC(Cc1cc(F)ncc1Cl)(Cn1cncn1)c1ccc(F)cc1F` (stereo not shown) [Example I-41]: the LogP was 2.35^[a].
Take `OC(Cc1ccnc(Cl)c1)(Cn1cncn1)c1ccccc1` (stereo not shown) [Example I-37]: the LogP was 1.60^[a].
On the same count and under the same terms, next, `OC(Cc1ccncc1F)(Cn1cncn1)c1ccccc1` (stereo not shown) [Example I-36]: 1.13^[a]; `OC(Cc1ccnc(Cl)c1F)(Cn1cncn1)c1ccc(F)cc1F` (single isomer, unassigned) [Example I-55]: 2.21^[a]; `OC(Cc1cc(Cl)ncc1F)(Cn1cncn1)c1ccc(F)cc1` (stereo not shown) [Example I-32]: 1.96^[a].
Consider `OC(Cc1cccnc1Cl)(Cn1cncn1)c1ccc(C(F)(F)F)cc1` (stereo not shown) [Example I-16], for which the LogP was 2.22^[a].
`OC(Cc1ccnc(Cl)c1)(Cn1cncn1)c1ccc(Oc2ccc(F)cc2F)cc1` (stereo not shown) [Example I-25]: the LogP was 2.69^[a].

The data set is the same for the next values; noted with them: Table 1, formula (I); method [a]: LC-UV, acidic range, 0.1% formic acid in water and acetonitrile.
For `OC(Cc1cc(Cl)ncc1F)(Cn1cncn1)c1ccc(-c2ccccc2)cc1` (stereo not shown) [Example I-26], the LogP is 2.88^[a].
As to `OC(Cc1cc(F)ncc1Cl)(Cn1cncn1)c1ccc(-c2ccccc2)cc1` (stereo not shown) [Example I-27], the LogP was 3.02^[a].

Still in this data set, the particulars now being: Table 2, epoxides of formula (XII); method [a]: LC-UV, acidic range, 0.1% formic acid in water and acetonitrile.
For the molecule `Fc1c(CC2(c3ccccc3Cl)CO2)ccnc1Cl` (racemic) [XII-49], the LogP was 3.47^[a].
The same measure, in the same setting: to `Clc1cncc(Cl)c1CC1(c2ccccc2)CO1` (racemic) [XII-58] belongs 3.53^[a]; to `Fc1c(CC2(c3ccc(Cl)cc3)CO2)ccnc1Cl` (racemic) [XII-43], 3.58^[a].
Still for that read-out and setting: to `Fc1cnc(Cl)cc1CC1(c2ccc(Oc3ccccc3)cc2)CO1` (stereo not shown) [XII-18] belongs 4.23^[a].
On the same count and under the same terms, next, `Fc1cc(CC2(c3ccccc3Cl)CO2)c(Cl)cn1` (racemic) [XII-38]: 3.80^[a]; `Fc1c(CC2(c3ccc(Oc4ccccc4)cc3)CO2)ccnc1Cl` (racemic) [XII-48]: 4.20^[a].
Turning to `Fc1ccc(Oc2ccc(C3(Cc4ccnc(Cl)c4F)CO3)cc2)c(F)c1` (racemic) [XII-44], the LogP was 4.20^[a].
On the same count and under the same terms, to `Fc1ccc(C2(Cc3cc(F)ncc3Cl)CO2)cc1` (racemic) [XII-39] belongs 3.37^[a]; to `Fc1c(CC2(c3ccc(-c4ccccc4)cc3)CO2)ccnc1Cl` (racemic) [XII-45], 4.25^[a]; to `Fc1ccc(Oc2ccc(C3(Cc4ccnc(Cl)c4)CO3)cc2)c(F)c1` (stereo not shown) [XII-12], 3.85^[a].
Same read-out and setting: next, `Fc1cc(CC2(c3ccc(Cl)cc3)CO2)c(Cl)cn1` (racemic) [XII-37]: 3.85^[a].
With `Clc1cnccc1CC1(c2ccccc2Cl)CO1` (stereo not shown) [XII-29], the LogP was 3.02^[a].
Same read-out and setting: next, `Clc1ccc(C2(Cc3c(Cl)cncc3Cl)CO2)cc1` (racemic) [XII-57]: 4.10^[a]; `Fc1ccc(Oc2ccc(C3(Cc4c(Cl)cncc4Cl)CO3)cc2)c(F)c1` (racemic) [XII-52]: 4.70^[a].
